Columns and labels:
Assay in all cases: fitness (endpoint OD595 vs no drug) (fraction); higher = more growth
[1] = system: S. aureus DSM 20231
Summary of the method: (§1)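 Fitness was measured as bacterial growth in 384-well plates inoculated at OD595 0.01 (30 µl, or 55 µl for S. pneumoniae). Media were TSB, LB Lennox or CY, at 37 °C. OD595 was read every 30 min for 14 h and background-subtracted against the first reading. Fitness is OD595 at the transition into stationary phase divided by the robust mean of no-drug control wells, capped at 1.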

[2] = system: S. aureus Newman
Summary of the method: as §1

[3] = system: S. pneumoniae D39V
Summary of the method: as §1
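Note: OD595 on entry to stationary phase over no-drug wells; at most 1.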

CO[C@@]12[C@H](COC(N)=O)C3=C(C(=O)C(C)=C(N)C3=O)N1C[C@@H]1N[C@@H]12 [Mitomycin C] + CC1=C\[C@@H](O)CC(=O)Cc2nc(co2)C(=O)N2CCC=C2C(=O)O[C@H](C(C)C)[C@H](C)/C=C/C(=O)NC\C=C\1 [Virginiamycin M1]
Conditions	fitness
[1], first compound 0.0156 µg/mL, partner 0.0625 µg/mL	0.697
[1], first compound 0.0156 µg/mL, partner 0.125 µg/mL	0.712
[1], first compound 0.0156 µg/mL, partner 0.25 µg/mL	0.747
[1], first compound 0.0312 µg/mL, partner 0.0625 µg/mL	0.676
[1], first compound 0.0312 µg/mL, partner 0.125 µg/mL	0.719
[1], first compound 0.0312 µg/mL, partner 0.25 µg/mL	0.714
[1], first compound 0.0625 µg/mL, partner 0.0625 µg/mL	0.576
[1], first compound 0.0625 µg/mL, partner 0.125 µg/mL	0.579
[1], first compound 0.0625 µg/mL, partner 0.25 µg/mL	0.578
[3], first compound 0.001075 µg/mL, partner 0.5 µg/mL	0.966
[3], first compound 0.001075 µg/mL, partner 1 µg/mL	0.929
[3], first compound 0.001075 µg/mL, partner 2 µg/mL	0.928
[3], first compound 0.002 µg/mL, partner 2 µg/mL	0.808
[3], first compound 0.00215 µg/mL, partner 0.5 µg/mL	0.945
[3], first compound 0.00215 µg/mL, partner 1 µg/mL	0.947
[3], first compound 0.00215 µg/mL, partner 2 µg/mL	0.905
[3], first compound 0.004 µg/mL, partner 2 µg/mL	0.783
[3], first compound 0.0043 µg/mL, partner 0.5 µg/mL	0.856
[3], first compound 0.0043 µg/mL, partner 1 µg/mL	0.839
[3], first compound 0.0043 µg/mL, partner 2 µg/mL	0.835
[3], first compound 0.008 µg/mL, partner 2 µg/mL	0.682

fitness, one replicate
Conditions	partner 0.0625 µg/mL	partner 0.125 µg/mL	partner 0.15 µg/mL	partner 0.25 µg/mL	partner 0.3 µg/mL	partner 0.5 µg/mL	partner 1 µg/mL	partner 2 µg/mL
[1], first compound 0.0156 µg/mL	–	–	–	–	–	0.774	0.825	–
[1], first compound 0.0312 µg/mL	–	–	–	–	–	0.681	0.701	–
[1], first compound 0.0625 µg/mL	–	–	–	–	–	0.515	0.611	–
[2], first compound 0.0156 µg/mL	0.71	0.702	–	0.681	–	0.66	0.667	0.593
[2], first compound 0.0312 µg/mL	0.683	0.662	–	0.761	–	0.657	0.602	0.544
[2], first compound 0.0625 µg/mL	0.564	0.597	–	0.583	–	0.564	0.54	0.433
[3], first compound 0.002 µg/mL	–	–	0.927	–	0.894	0.936	0.878	–
[3], first compound 0.004 µg/mL	–	–	0.849	–	0.823	0.887	0.854	–
[3], first compound 0.008 µg/mL	–	–	0.791	–	0.799	0.767	0.626	–

CO[C@@]12[C@H](COC(N)=O)C3=C(C(=O)C(C)=C(N)C3=O)N1C[C@@H]1N[C@@H]12 [Mitomycin C] + CN[C@@H]1[C@H](O)[C@H](NC)[C@H]2O[C@@]3(O)C(=O)C[C@@H](C)O[C@H]3O[C@@H]2[C@H]1O [Spectinomycin]
fitness
Conditions	first compound 0.001075 µg/mL	first compound 0.00215 µg/mL	first compound 0.0043 µg/mL	first compound 0.0156 µg/mL	first compound 0.0312 µg/mL	first compound 0.0625 µg/mL
[1], partner 4 µg/mL	–	–	–	0.726	0.729	0.67
[1], partner 8 µg/mL	–	–	–	0.705	0.733	0.62
[1], partner 16 µg/mL	–	–	–	0.687	0.667	0.57
[2], partner 4 µg/mL	–	–	–	0.653	0.656	0.496
[2], partner 8 µg/mL	–	–	–	0.662	0.684	0.432
[2], partner 16 µg/mL	–	–	–	0.603	0.541	0.33
[3], partner 4 µg/mL	0.899	0.814	0.746	–	–	–
[3], partner 8 µg/mL	0.916	0.824	0.647	–	–	–
[3], partner 16 µg/mL	0.839	0.784	0.628	–	–	–

fitness, one replicate
Conditions	first compound 0.002 µg/mL	first compound 0.004 µg/mL	first compound 0.008 µg/mL	first compound 0.0156 µg/mL	first compound 0.0312 µg/mL	first compound 0.0625 µg/mL
[1], partner 32 µg/mL	–	–	–	0.614	0.475	0.258
[1], partner 64 µg/mL	–	–	–	0.0362	0.0235	0.0021
[2], partner 32 µg/mL	–	–	–	0.294	0.158	0.034
[2], partner 64 µg/mL	–	–	–	0.017	0.0135	0
[3], partner 4 µg/mL	0.903	0.851	0.638	–	–	–
[3], partner 8 µg/mL	0.812	0.77	0.562	–	–	–

CO[C@@]12[C@H](COC(N)=O)C3=C(C(=O)C(C)=C(N)C3=O)N1C[C@@H]1N[C@@H]12 [Mitomycin C] + Cn1nnc(-c2ccc(-c3ccc(N4C[C@H](CO)OC4=O)cc3F)cn2)n1 [Tedizolid]
fitness
Conditions	partner 0.03125 µg/mL	partner 0.0625 µg/mL	partner 0.125 µg/mL	partner 0.25 µg/mL	partner 0.5 µg/mL
[1], first compound 0.0156 µg/mL	–	0.701	0.652	0.281	–
[1], first compound 0.0312 µg/mL	–	0.692	0.597	0.225	–
[1], first compound 0.0625 µg/mL	–	0.511	0.47	0.2	–
[2], first compound 0.0156 µg/mL	–	0.653	0.612	0.177	–
[2], first compound 0.0312 µg/mL	–	0.61	0.587	0.084	–
[2], first compound 0.0625 µg/mL	–	0.519	0.379	0.0559	–
[3], first compound 0.001075 µg/mL	–	–	0.76	0.688	0.313
[3], first compound 0.002 µg/mL	0.825	0.821	0.749	–	–
[3], first compound 0.00215 µg/mL	–	–	0.774	0.687	0.273
[3], first compound 0.004 µg/mL	0.745	0.725	0.686	–	–
[3], first compound 0.0043 µg/mL	–	–	0.687	0.617	0.21
[3], first compound 0.008 µg/mL	0.635	0.611	0.518	–	–

CO[C@@]12[C@H](COC(N)=O)C3=C(C(=O)C(C)=C(N)C3=O)N1C[C@@H]1N[C@@H]12 [Mitomycin C] + Cc1cc(NS(=O)(=O)c2ccc(N)cc2)no1 [Sulfamethoxazol]
fitness
Conditions	first compound 0.001075 µg/mL	first compound 0.00215 µg/mL	first compound 0.0043 µg/mL	first compound 0.0156 µg/mL	first compound 0.0312 µg/mL	first compound 0.0625 µg/mL
[1], partner 1 µg/mL	–	–	–	0.703	0.664	0.534
[1], partner 2 µg/mL	–	–	–	0.686	0.689	0.558
[1], partner 4 µg/mL	–	–	–	0.721	0.684	0.547
[2], partner 1 µg/mL	–	–	–	0.779	0.66	0.546
[2], partner 2 µg/mL	–	–	–	0.777	0.698	0.559
[2], partner 4 µg/mL	–	–	–	0.73	0.622	0.516
[3], partner 1 µg/mL	0.886	0.851	0.773	–	–	–
[3], partner 2 µg/mL	0.894	0.873	0.779	–	–	–
[3], partner 4 µg/mL	0.921	0.913	0.787	–	–	–

fitness, one replicate
Conditions	first compound 0.002 µg/mL	first compound 0.004 µg/mL	first compound 0.008 µg/mL	first compound 0.0156 µg/mL	first compound 0.0312 µg/mL	first compound 0.0625 µg/mL
[2], partner 8 µg/mL	–	–	–	0.993	0.823	0.658
[3], partner 1 µg/mL	0.81	0.724	0.496	–	–	–
[3], partner 2 µg/mL	0.727	0.686	0.459	–	–	–
[3], partner 4 µg/mL	0.739	0.7	0.513	–	–	–

CO[C@@]12[C@H](COC(N)=O)C3=C(C(=O)C(C)=C(N)C3=O)N1C[C@@H]1N[C@@H]12 [Mitomycin C] + CN(N=O)C(=O)N[C@@H](C=O)[C@@H](O)[C@H](O)[C@H](O)CO [Streptozotocin]
fitness
Conditions	first compound 0.001075 µg/mL	first compound 0.00215 µg/mL	first compound 0.0043 µg/mL	first compound 0.0156 µg/mL	first compound 0.0312 µg/mL	first compound 0.0625 µg/mL
[1], partner 0.15 µg/mL	–	–	–	0.706	0.656	0.541
[1], partner 0.3 µg/mL	–	–	–	0.633	0.645	0.51
[1], partner 0.6 µg/mL	–	–	–	0.571	0.56	0.433
[2], partner 0.15 µg/mL	–	–	–	0.654	0.578	0.433
[2], partner 0.3 µg/mL	–	–	–	0.615	0.548	0.379
[2], partner 0.6 µg/mL	–	–	–	0.462	0.381	0.185
[3], partner 1.2 µg/mL	0.899	0.84	0.74	–	–	–
[3], partner 2.4 µg/mL	0.911	0.886	0.777	–	–	–
[3], partner 4.8 µg/mL	0.915	0.848	0.603	–	–	–

fitness, [3], one replicate
Conditions	first compound 0.002 µg/mL	first compound 0.004 µg/mL	first compound 0.008 µg/mL
partner 1.2 µg/mL	0.815	0.769	0.525
partner 2.4 µg/mL	0.796	0.739	0.588
partner 4.8 µg/mL	0.653	0.597	0.347

From the supplement of paper PMC10627819
